Test results reported in ChEMBL document CHEMBL5543108, “Structure-based design and synthesis of BML284 derivatives: A novel class of colchicine-site noncovalent tubulin degradation agents” (Eur J Med Chem, 2024).

Key:
A2780/Taxol [1] = experiment: Induction of cell cycle arrest in human A2780T cells assessed as accumulation of cells at S phase at 3 nM measured after 24 hrs by propidium iodide staining based analysis (reference value: 29.73%); assay type: functional
A2780/Taxol [2] = experiment: Induction of cell cycle arrest in human A2780T cells assessed as accumulation of cells at G2/M phase at 3 nM measured after 24 hrs by propidium iodide staining based analysis (reference value: 24.13%); assay type: functional
A2780/Taxol [3] = experiment: Induction of cell cycle arrest in human A2780T cells assessed as accumulation of cells at G0/G1 phase at 10 nM measured after 24 hrs by propidium iodide staining based analysis (reference value: 46.141%); assay type: functional
[4] = Volume of distribution at steady state in male Sprague-Dawley rat at 10 mg/kg, po; assay type: ADME, organism-based; conditions: in vivo
[5] = Selectivity ratio of IC50 for human MCF7ADR cells to IC50 for human MCF7; assay type: toxicity
A2780/Taxol [6] = experiment: Induction of cell cycle arrest in human A2780T cells assessed as accumulation of cells at G0/G1 phase at 30 nM measured after 24 hrs by propidium iodide staining based analysis (reference value: 46.141%); assay type: functional
[7] = Tmax in male Sprague-Dawley rat at 10 mg/kg, iv; assay type: ADME, organism-based; conditions: in vivo
[8] = Tmax in male Sprague-Dawley rat at 10 mg/kg, po; assay type: ADME, organism-based; conditions: in vivo
A2780/Taxol [9] = experiment: Induction of cell cycle arrest in human A2780T cells assessed as accumulation of cells at G2/M phase at 30 nM measured after 24 hrs by propidium iodide staining based analysis (reference value: 24.13%); assay type: functional
[10] = AUC (0 to t) in male Sprague-Dawley rat at 10 mg/kg, iv; assay type: ADME, organism-based; conditions: in vivo
[11] = Toxicity in mouse xenografted with human A2780S cells assessed as effect on body weight at 10 to 30 mg/kg, iv measured upto 12 days; assay type: organism-based; conditions: in vivo, 288 h, dose 10-30 mg/kg, time < 12 day
[12] = Cmax in male Sprague-Dawley rat at 10 mg/kg, iv; assay type: ADME, organism-based; conditions: in vivo
A2780/Taxol [13] = experiment: Induction of cell cycle arrest in human A2780T cells assessed as accumulation of cells at G0/G1 phase at 3 nM measured after 24 hrs by propidium iodide staining based analysis (reference value: 46.141%); assay type: functional
A2780/Taxol [14] = experiment: Induction of apoptosis in human A2780T cells assessed as total number of late apoptotic cells at 300 nM measured after 48 hrs by Annexin-V-FITC and PI staining based flow cytometry analysis (reference value: 3.42%); assay type: functional
HeLa = experiment: Antiproliferative activity against human HeLa cells assessed as reduction in cell viability measured after 72 hrs; assay type: functional, cell-based
A2780/Taxol [15] = experiment: Induction of cell cycle arrest in human A2780T cells assessed as accumulation of cells at S phase at 300 nM measured after 24 hrs by propidium iodide staining based analysis (reference value: 29.73%); assay type: functional
A2780S [16] = experiment: Induction of cell cycle arrest in human A2780S cells assessed as accumulation of cells at G2/M phase at 3 nM measured after 24 hrs by propidium iodide staining based analysis (reference value: 18.43%); assay type: functional
[17] = Toxicity in mouse xenografted with human A2780T cells assessed as side effects at 10 to 30 mg/kg, iv measured upto 18 days; assay type: organism-based, A2780/Taxol; conditions: in vivo, 432 h, dose 10-30 mg/kg, time < 18 day
Tubulin (Homo sapiens) = Tubulin (Homo sapiens) (UniProt P68371+Q9H4B7+P0DPH7+P68366+Q13509+Q71U36+P04350+Q3ZCM7+P07437+P68363+Q9BQE3+Q6PEY2+Q13885+Q9BVA1+Q9BUF5); experiment: Induction of tubulin degradation in human HeLa cells measured after 24 hrs by immunoblot analysis; assay type: cell-based; conditions: dose <= 50.0 µM
A2780/Taxol [18] = experiment: Induction of apoptosis in human A2780T cells assessed as total number of late apoptotic cells at 30 nM measured after 48 hrs by Annexin-V-FITC and PI staining based flow cytometry analysis (reference value: 3.42%); assay type: functional
A2780S [19] = experiment: Induction of cell cycle arrest in human A2780S cells assessed as accumulation of cells at G0/G1 phase at 3 nM measured after 24 hrs by propidium iodide staining based analysis (reference value: 51.71%); assay type: functional
[20] = AUC (0 to t) in male Sprague-Dawley rat at 10 mg/kg, po; assay type: ADME, organism-based; conditions: in vivo
[21] = Toxicity in mouse xenografted with human A2780T cells assessed as effect on body weight at 10 to 30 mg/kg, iv measured upto 18 days; assay type: organism-based, A2780/Taxol; conditions: in vivo, 432 h, dose 10-30 mg/kg, time < 18 day
MOLM-13 = experiment: Antiproliferative activity against human MOLM-13 cells assessed as reduction in cell viability measured after 72 hrs; assay type: functional, cell-based; conditions: MOLM-13, 72 h
A2780S [22] = experiment: Antiproliferative activity against human A2780S cells assessed as reduction in cell viability measured after 72 hrs; assay type: functional, cell-based
A2780S [23] = experiment: Induction of cell cycle arrest in human A2780S cells assessed as accumulation of cells at G0/G1 phase at 300 nM measured after 24 hrs by propidium iodide staining based analysis (reference value: 51.71%); assay type: functional
HUVEC = experiment: Antivascular activity against human HUVEC cells assessed as inhibition of capillary tube formation at 40 nM incubated for 6 hrs by microscopy based analysis relative to control; assay type: functional; parameters: scale not given: the % may be the effect or the level left
A2780S [24] = experiment: Induction of cell cycle arrest in human A2780S cells assessed as accumulation of cells at G2/M phase at 30 nM measured after 24 hrs by propidium iodide staining based analysis (reference value: 18.43%); assay type: functional
A2780S [25] = experiment: Antitumor activity against human A2780S cells xenografted in mouse model assessed as tumor growth inhibition at 30 mg/kg, iv administered every two days for 12 days relative to control; assay type: functional; conditions: 288 h, time 12 day, read-out: TGI
A2780/Taxol [26] = experiment: Induction of cell cycle arrest in human A2780T cells assessed as accumulation of cells at S phase at 10 nM measured after 24 hrs by propidium iodide staining based analysis (reference value: 29.73%); assay type: functional
A549 = experiment: Antiproliferative activity against human A549 cells assessed as reduction in cell viability measured after 72 hrs; assay type: functional, cell-based; conditions: A549, 72 h
[27] = Half life in male Sprague-Dawley rat at 10 mg/kg, iv; assay type: ADME, organism-based; conditions: in vivo
A2780S [28] = experiment: Induction of cell cycle arrest in human A2780S cells assessed as accumulation of cells at G2/M phase at 10 nM measured after 24 hrs by propidium iodide staining based analysis (reference value: 18.43%); assay type: functional
[29] = Cmax in male Sprague-Dawley rat at 10 mg/kg, po; assay type: ADME, organism-based; conditions: in vivo
[30] = Toxicity in mouse xenografted with human A2780S cells assessed as side effects at 10 to 30 mg/kg, iv measured upto 12 days; assay type: organism-based; conditions: in vivo, 288 h, dose 10-30 mg/kg, time < 12 day
A2780S [31] = experiment: Induction of cell cycle arrest in human A2780S cells assessed as accumulation of cells at G0/G1 phase at 100 nM measured after 24 hrs by propidium iodide staining based analysis (reference value: 51.71%); assay type: functional
A2780S [32] = experiment: Induction of cell cycle arrest in human A2780S cells assessed as accumulation of cells at S phase at 100 nM measured after 24 hrs by propidium iodide staining based analysis (reference value: 29.85%); assay type: functional

Question: Which Activity (A2780/Taxol [1]) does the source give for `COc1cccc(-c2cc(NCc3ccc4[nH]ccc4c3)nc(N)n2)c1` here?
Answer: 29.77%

Question: What about the Activity (A2780/Taxol [2]) of the same molecule?
Answer: 19.35%

Question: What about the Activity (A2780/Taxol [3]) of the same molecule?
Answer: 46.48%

Question: What about the Vdss [4] of the same molecule?
Answer: 154.68 L/kg

Question: What about the “Ratio IC50” value [5] of the same molecule?
Answer: 1.6

Question: And the Activity (A2780/Taxol [6])?
Answer: 44.27%

Question: And the Tmax [7]?
Answer: 4.8 min

Question: What about the Tmax [8] of the same molecule?
Answer: 3.67 h

Question: And the Activity (A2780/Taxol [9])?
Answer: 20%

Question: What about the AUC(0-t) [10] of the same molecule?
Answer: 4270 ng·h/mL

Question: And the Activity [11]?
Answer: Non-Toxic

Question: And the Cmax [12]?
Answer: 2890 ng/mL

Question: And the Activity (A2780/Taxol [13])?
Answer: 50.87%

Question: And the Activity (A2780/Taxol [14])?
Answer: 15.57%

Question: And the IC50 (HeLa)?
Answer: 50 nM

Question: What about the Activity (A2780/Taxol [15]) of the same molecule?
Answer: 11.38%

Question: What about the Activity (A2780S [16]) of the same molecule?
Answer: 23.17%

Question: What about the Activity [17] of the same molecule?
Answer: Toxic

Question: What about the Activity (Tubulin (Homo sapiens)) of the same molecule?
Answer: Dose-Dependent Effect

Question: And the Activity (A2780/Taxol [18])?
Answer: 5.29%

Question: What about the Activity (A2780S [19]) of the same molecule?
Answer: 47.48%

Question: What about the AUC(0-t) [20] of the same molecule?
Answer: 447 ng·h/mL

Question: What about the Activity [21] of the same molecule?
Answer: Non-Toxic

Question: What about the IC50 (MOLM-13) of the same molecule?
Answer: 20 nM

Question: What about the IC50 (A2780S [22]) of the same molecule?
Answer: 18 nM

Question: What about the Activity (A2780S [23]) of the same molecule?
Answer: 1.54%

Question: And the Activity (HUVEC)?
Answer: 100%

Question: And the Activity (A2780S [24])?
Answer: 23.82%

Question: And the inhibition in vivo at 30 mg/kg (A2780S [25])?
Answer: 79.4%

Question: What about the Activity (A2780/Taxol [26]) of the same molecule?
Answer: 32.91%

Question: And the IC50 (A549)?
Answer: 34 nM

Question: And the half-life [27]?
Answer: 1.93 h

Question: And the Activity (A2780S [28])?
Answer: 22.16%

Question: What about the Cmax [29] of the same molecule?
Answer: 77.9 ng/mL

Question: And the Activity [30]?
Answer: Toxic

Question: And the Activity (A2780S [31])?
Answer: 20.38%

Question: And the Activity (A2780S [32])?
Answer: 37.17%
